Source: patent US7129271B2, “Compounds for pest control and methods for their use” (The United States of America as represented by the …, priority 2000, dated 2006)
Converted amounts (≈) assume the structure as drawn. Read-outs that look alike come from different tables or passages of the source.

Experiments:
I. scapularis nymphs = test: Tick bioassay, modified disposable pipette method, treated vials (Example 9); type: in vivo, Ixodes scapularis
Description: Tick Colonies. […] There was no known pesticide used at this location. Ticks were maintained at 21° C., 90% RH, and received a 16:8 h (light:dark) cycle as described in […]. Med. […] Tick and Flea Bioassays. […] A control treated with acetone only was run with each series. Tick and flea susceptibility was evaluated using a modified disposable pipette method. See, Barnard, D. R., et al., J. Econ. […] Three to 4 holes were made in the plastic cap to allow for air exchange. Nymphal ticks and adult fleas were then placed directly into the vials using forceps. Vials containing ticks or fleas were placed in desiccators for 24 h at 21° C. and 90% RH. […] For each time point, if ticks were incapable of movement, maintaining normal posture, leg coordination, ability to right themselves, or any signs of life, they were considered moribund or dead.

X. cheopis adults = test: Flea bioassay, treated vials (Example 9); type: in vivo
Description: Flea Colonies. Adult X. cheopis fleas (1–3 wk old) were obtained from a colony founded more than eight years ago using adults received from Tom Schwan, Rocky Mountain Laboratories, Hamilton, Mont. The area from which these original adult fleas were obtained, and the resulting colony, have no known histories of pesticide exposure.
(§1) Tick and Flea Bioassays. Concentrations of the compounds were prepared by 2-fold serial dilutions of a 0.5% (wt:vol) solution of the extracts in acetone. […] A control treated with acetone only was run with each series. Tick and flea susceptibility was evaluated using a modified disposable pipette method. See, Barnard, D. R., et al., J. Econ. Entomol.
(§2) The inner surface of 2-dram friction cap vials were treated with the compound/acetone solution, or acetone only as a control, and left to air-dry overnight. Three to 4 holes were made in the plastic cap to allow for air exchange. Nymphal ticks and adult fleas were then placed directly into the vials using forceps. Vials containing ticks or fleas were placed in desiccators for 24 h at 21° C. and 90% RH. Morbidity and mortality was recorded at 1, 2, 4, 8, and 24 h after initial exposure.

Ae. aegypti adults = test: Mosquito bottle bioassay (Example 9); type: in vivo
Description: Mosquito Colonies. Aedes aegypti adult mosquitoes were obtained from an existing colony at the Centers for Disease Control and Prevention (CDC), Division of Vector-Borne Infectious Diseases (DVBID), Fort Collins, Colo. This colony has been maintained for over fifteen years with no known history of exposure to pesticides. Mosquitoes were reared at 28° C., 85% RH, and a 14:10 h (light:dark) cycle. Larvae were grown in de-ionized water and fed ground liver powder solution ad libitum. Fourth instars were removed and placed in emergence cages, and adults were fed a 2% sucrose solution until assayed. Adults were exposed to test products at 4–7 d after emergence.
(§3) Mosquit Bioassay. Adult mosquitoes were tested using the bottle bioassay method of Brogden, W. G., and McAllister, J. C., J. Am. Mosq. Control Assoc. 14:159–64 (1998), with minor modifications. Natural product extracts were two-fold serially diluted for a total of 8 concentrations ranging from 0.002% to 0.25% in 1.5 ml of acetone. Individual dilutions were added to 250 ml Wheaton glass bottles and capped. Bottles were manipulated to evenly coat all inner surfaces. The caps were removed and bottles were allowed to air-dry overnight. Once bottles were completely dry, 10–50 adult mosquitoes were aspirated into the bottles. Mosquitoes were held in the bottles for 24 h at 23° C. and 85% RH. Morbidity and mortality were recorded at 15, 30, 45, and 60 min and 24 hour intervals. One bottle for each replicate was treated with acetone only and served as a control. The dose-mortality data was evaluated with probit analysis, using the LdP Line software, to determine LC50 and LC90 values.

Ixodes scapularis nymphs = test: Residual activity, treated vials aged before loading (Example 9); type: in vivo
Description: as §1, with “acetone. The approximate toxicity of individual compounds was determined with a total of 8 doses ranging from 0.002% to 0.25%.” for “acetone.”, “Entomol. 74:466–69 (1981).” for “Entomol.”
as §2, with “Groups of 10 nymphal I. scapularis and X. cheopis fleas were used in all tests, resulting in a total of 5,240 nymphs and 4,860 fleas exposed to the compounds. The” for “The”

[1] = test system: Xenopsylla cheopis adults; test: as above; type: in vivo
Description: as §1, with “acetone. The approximate toxicity of individual compounds was determined with a total of 8 doses ranging from 0.002% to 0.25%.” for “acetone.”, “Entomol. 74:466–69 (1981).” for “Entomol.”
as §2, with “Groups of 10 nymphal I. scapularis and X. cheopis fleas were used in all tests, resulting in a total of 5,240 nymphs and 4,860 fleas exposed to the compounds. The” for “The”

Aedes aegypti adults = test: Residual activity, treated bottles aged before loading (Example 9); type: in vivo
Description: as §3

[2] = test system: ticks, fleas, and mosquitoes; test: Residual activity, overall statements for ticks, fleas and mosquitoes (Example 9); conditions: 1 to 4 weeks after treatment
[3] = test system: nymphal Ixodes scapularis; test: Treated-vial biocidal screening, 2% acetone solutions (Example 2); type: in vivo
Description: (§4) Samples of the compounds listed below Were obtained from Dr. Karchesy, a co-inventor, and screened for biocidal activities against nymphal Ixodes scapularis. In this example, 2% acetone solutions (wt./vol.) of the compounds were applied to inner surfaces of 2-dram friction cap vials. Vials and caps were treated then allowed to dry for a minimum of 4 hours before placing 10 nymphs in each container. These same vials were used to challenge additional nymphs and adult I. scapularis ticks and adult Xenopsylla cheopis fleas through five weeks to observe any possible residual activity.
(§5) Numbers in parentheses refer to length of treatment in terms of hours (h) or weeks (wk). Data is presented in terms of number killed/number tested. For test periods longer than 24 hours, the treated vials were allowed to sit for the stated period after drying (72 h, 4 wk, or 5 wk) and each group of arthropods was added to the vials for the final 24 h of the test period.

[4] = test system: adult I. scapularis ticks; test: Treated-vial biocidal screening, residual challenge (Example 2); type: in vivo, Ixodes scapularis; conditions: treated vials sat 4 wk; arthropods added for final 24 h
Description: as §4, §5

[5] = test system: adult Xenopsylla cheopis fleas; test: as above; type: in vivo; conditions: treated vials sat 5 wk; arthropods added for final 24 h
Description: as §4, §5

[6] = Ixodes scapularis, 24 h, 24 h exposure, 95% CI in parentheses, read-out: LC90
[7] = Xenopsylla cheopis, 24 h, 24 h exposure, 95% CI in parentheses, read-out: LC50
[8] = Xenopsylla cheopis, 24 h, 24 h exposure, 95% CI in parentheses, read-out: LC90
[9] = Aedes aegypti, 24 h, 24 h exposure, 95% CI in parentheses, read-out: LC50
[10] = Aedes aegypti, 24 h, 24 h exposure, 95% CI in parentheses, read-out: LC90 (the source's name)
[11] = residual activity at 1 week after treatment
[12] = residual activity at 2 weeks after treatment
[13] = 24 h exposure, 95% CI in parentheses
[14] = residual activity at 4 weeks after treatment

Row | SMILES | LC50 (I. scapularis nymphs; Ixodes scapularis, 24 h) | LC90 (I. scapularis nymphs; [6]) | LC50 (X. cheopis adults; [7]) | LC90 (X. cheopis adults; [8]) | LC50 (Ae. aegypti adults; [9]) | EC90 (Ae. aegypti adults; [10]) | LC50 (Ixodes scapularis nymphs; [11]) | LC90 (Ixodes scapularis nymphs; [11]) | LC50 [1, 11] | LC90 [1, 11] | LC50 (Aedes aegypti adults; [11]) | LC90 (Aedes aegypti adults; [11]) | LC50 (Aedes aegypti adults; [12]) | LC90 (Aedes aegypti adults; [12]) | residual activity (in words) [2] | LC50 (I. scapularis nymphs; [13]) | LC50 (X. cheopis adults; [13]) | other results
1 | Cc1ccc(C(C)C)cc1O [Compound 4, Carvacrol] | 68 mg/L (≈ 453 µM) |  |  |  |  |  |  |  |  |  |  |  |  |  |  |  |  | LC90 (I. scapularis nymphs; Ixodes scapularis, 24 h, read-out: LC90): 140 mg/L (≈ 932 µM); LC50 (X. cheopis adults; Xenopsylla cheopis, 24 h): 59 mg/L (≈ 393 µM); LC90 (X. cheopis adults; Xenopsylla cheopis, 24 h, read-out: LC90): 140 mg/L (≈ 932 µM); LC50 (Ae. aegypti adults; Aedes aegypti, 24 h): 51 mg/L (≈ 339 µM); EC90 (Ae. aegypti adults; Aedes aegypti, 24 h, read-out: LC90): 140 mg/L (≈ 932 µM)
2 | C=C(C=O)C1CCC2=CCC[C@@H](C)[C@]2(C)C1 (stereo partly drawn) [Compound 15, valencene-13-aldehyde] | 59 mg/L (≈ 270 µM) | 170 mg/L (≈ 779 µM) | 49 mg/L (≈ 224 µM) | 85 mg/L (≈ 389 µM) | 24 mg/L (≈ 110 µM) | 34 mg/L (≈ 156 µM) | 0.026 (0.02–0.033) percent concentration, wt:vol | 0.072 (0.052–0.121) percent concentration, wt:vol | 0.059 percent concentration, wt:vol | 0.148 percent concentration, wt:vol | 0.011 (0.0095–0.013) percent concentration, wt:vol | 0.027 (0.022–0.037) percent concentration, wt:vol | 0.014 (0.0074–0.025) percent concentration, wt:vol | 0.037 (0.029–0.127) percent concentration, wt:vol | considerable biological activity |  |  | 
3 | C=C(C)[C@@H]1CCC2=CCC[C@@H](C)[C@]2(C)C1 [Compound 5, Valencene] |  |  |  |  |  |  |  |  |  |  |  |  |  |  |  | 0.598 percent concentration, wt:vol | 0.041 (0.034–0.049) percent concentration, wt:vol | I. scapularis nymphs (24 h), number killed/number tested ([3]; 2% acetone solution (wt./vol.) dried in vials, 24 h): 10/10; I. scapularis nymphs (72 h), number killed/number tested ([3]; treated vials sat 72 h, arthropods added for final 24 h): 0/5; I. scapularis adults (4 wk), number killed/number tested [4]: 0/5; X. cheopis adults (5 wk), number killed/number tested [5]: 0/5; LC90 (I. scapularis nymphs; [13]): 44.837 percent concentration, wt:vol; LC90 (X. cheopis adults; [13]): 0.063 (0.052–0.093) percent concentration, wt:vol; LC50 (Ae. aegypti adults; [13]): 0.015 (0.008–0.029) percent concentration, wt:vol; LC90 (Ae. aegypti adults; [13]): 0.037 (0.031–0.162) percent concentration, wt:vol
4 | C=C(C)C1CCC23OC2C(=O)C[C@@H](C)[C@]3(C)C1 (stereo partly drawn) [Compound 17, nootkatone-1,10-epoxide] | 200 mg/L (≈ 853 µM) | 550 mg/L (≈ 2350 µM) | 170 mg/L (≈ 725 µM) | 590 mg/L (≈ 2520 µM) | 2230 mg/L (≈ 9520 µM) | 20000 mg/L (≈ 85400 µM) |  |  |  |  |  |  |  |  |  |  |  | 
5 | C=C(C)[C@@H]1CCC2=CC(=O)C[C@@H](C)[C@]2(C)C1 [Compound 9, Nootkatone] |  |  |  |  |  |  | 0.0084 (0.005–0.013) percent concentration, wt:vol | 0.08 (0.045–0.22) percent concentration, wt:vol | 0.043 percent concentration, wt:vol | 0.259 percent concentration, wt:vol | 0.0089 (0.0077–0.01) percent concentration, wt:vol | 0.018 (0.015–0.023) percent concentration, wt:vol | 0.0042 (0.0036– percent concentration, wt:vol | 0.0088 (0.0074–0.011) percent concentration, wt:vol | considerable biological activity | 0.0033 (0.0027–0.004) percent concentration, wt:vol | 0.0066 (0.0046–0.0086) percent concentration, wt:vol | LC50 (Ae. aegypti adults; [13]): 0.0075 percent concentration, wt:vol; LC50 (Ixodes scapularis nymphs; [12]): 0.0089 (0.0068–0.012) percent concentration, wt:vol; LC90 (Ixodes scapularis nymphs; [12]): 0.027 (0.02–0.045) percent concentration, wt:vol; LC50 [1, 12]: 0.027 percent concentration, wt:vol; LC90 [1, 12]: 0.085 percent concentration, wt:vol; LC90 [1, 14]: 0.111 (0.08–0.193) percent concentration, wt:vol; LC50 (Aedes aegypti adults; [14]): 0.018 percent concentration, wt:vol; LC90 (Aedes aegypti adults; [14]): 0.036 percent concentration, wt:vol
6 | C[C@@H]1CC(=O)C2OC23CCC(C2(C)CO2)C[C@@]13C (stereo partly drawn) [Compound 18, nootkatone-1,10-11,12-diepoxide] | 610 mg/L (≈ 2440 µM) | 2450 mg/L (≈ 9790 µM) | 640 mg/L (≈ 2560 µM) | 4840 mg/L (≈ 19300 µM) | 590 mg/L (≈ 2360 µM) | 1140 mg/L (≈ 4550 µM) |  |  |  |  |  |  |  |  |  |  |  | 
7 | C=C(C)[C@@H]1CCC2=CC(=O)C[C@@H](C)[C@]2(C)C1 [Compound 8, Nootkatone] |  |  |  |  |  |  | 0.025 percent concentration, wt:vol | 0.071 percent concentration, wt:vol | 0.02 (0.016–0.026) percent concentration, wt:vol | 0.053 (0.04–0.082) percent concentration, wt:vol | 0.0065 percent concentration, wt:vol | 0.014 percent concentration, wt:vol | 0.0067 (0.0058– percent concentration, wt:vol | 0.012 (0.01–0.015) percent concentration, wt:vol | considerable biological activity | 0.0061 (0.005–0.0072) percent concentration, wt:vol | 0.0029 (0.002–0.0038) percent concentration, wt:vol | LC50 (X. cheopis adults; 24 h exposure, 95% CI in parentheses, listed as compound 8): 0.0029 percent concentration, wt:vol; LC50 (Ixodes scapularis nymphs; [12]): 0.019 (0.014–0.024) percent concentration, wt:vol; LC90 (Ixodes scapularis nymphs; [12]): 0.056 (0.04–0.094) percent concentration, wt:vol; LC50 (Ixodes scapularis nymphs; [14]): 0.25 percent concentration, wt:vol; LC90 (Ixodes scapularis nymphs; [14]): 0.71 percent concentration, wt:vol; LC50 [1, 12]: 0.018 (0.013–0.024) percent concentration, wt:vol; LC90 [1, 12]: 0.081 (0.054–0.156) percent concentration, wt:vol; LC50 [1, 14]: 0.035 (0.026–0.051) percent concentration, wt:vol; LC90 [1, 14]: 0.161 (0.098–0.387) percent concentration, wt:vol; LC50 (Aedes aegypti adults; [14]): 0.02 percent concentration, wt:vol; LC90 (Aedes aegypti adults; [14]): 0.29 percent concentration, wt:vol
